6 molecules from the NIST ThermoML archive (doi:10.1021/acs.jced.6b00201) can be followed below.

Numbers after ± are expanded uncertainties.

For series [1] the following is noted: for Normal melting temperature: visual observation; for Glass transition temperature / Triple point temperature: DSC.
Series [2] in a line: Molar enthalpy of transition or fusion. Particulars: DSC.

Take `NC(=O)c1cnccn1` [pyrazinecarboxamide]: in series [1] (Crystal), the Normal melting temperature turned out to be 188.27 ± 0.16 °C.

As to `NNC(=O)c1ccncc1` [isonicotinic acid hydrazide], in series [1] (Crystal), the Normal melting temperature was found to be 172.69 ± 2 °C.

With `CCCCn1cc[n+](C)c1.F[B-](F)(F)F` [1-butyl-3-methylimidazolium tetrafluoroborate], in series [1], the Glass transition temperature was -83.90 ± 8 °C.

As for `CCCCn1cc[n+](C)c1.F[P-](F)(F)(F)(F)F` [1-butyl-3-methylimidazolium hexafluorophosphate], in series [1] (Crystal 1), the Triple point temperature is 286.46 ± 1.2 K. Moreover, the Glass transition temperature in series [1] was -74.28 ± 1.2 °C. Moreover, in series [2] (Crystal 1), the “Molar enthalpy of transition or fusion” value was 11.4 ± 0.35 kJ/mol.

Take `CCCCn1cc[n+](C)c1.O=S(=O)([O-])C(F)(F)F` [1-butyl-3-methylimidazolium trifluoromethanesulfonate]: in series [1] (Crystal), the Triple point temperature came out at 291.46 ± 1.2 K. Moreover, in series [2] (Crystal), the “Molar enthalpy of transition or fusion” value came out at 20.2 ± 0.59 kJ/mol.

On to `CCCCCCCCn1cc[n+](C)c1.O=S(=O)([O-])C(F)(F)F` [1-octyl-3-methylimidazolium trifluoromethanesulfonate], for which the Triple point temperature in series [1] (Crystal) is 283.51 ± 1.2 K. For the same molecule, the “Molar enthalpy of transition or fusion” value in series [2] (Crystal 1) worked out at 24.1 ± 0.69 kJ/mol.
